Experiments:
[1] = tested on: spontaneously hypertensive rats (SHR) of the Okamoto strain; test: Antihypertensive effect in conscious, unrestrained spontaneously hypertensive rats, oral cumulative dosing; format: in vivo; conditions: Rattus norvegicus; dose giving 20 per cent reduction of mean arterial BP, by interpolation; oral intubation in methocel, cumulated doses 1, 5 and 25 µmoles/kg at 2 hour intervals
Protocol: The antihypertensive effect of the compounds was tested in conscious, unrestrained spontaneously hypertensive rats (SHR) of the Okamoto strain. The animals had been prepared by prior implantation of indwelling catheters in the abdominal aorta via the femoral artery. Mean arterial blood pressure (MABP) and heart rate were continuously monitored. After a 2 hour control period the compound under study was administered by oral intubation at 2 hour intervals, suspended in methocel solution (5 ml/kg bodyweight). The cumulated doses were 1, 5 and 25)jmoles/kg bodyweight. The antihypertensive response, i.e. the BP'reduction to each dose, was expressed as a percentage of the initial control BP level and plotted against the dose on a logarithmic scale. The dose which would give 20 per cent BP reduction was then determined by interpolation.

[2] = tested on: isolated portal vein preparation / paced isolated papillary heart muscle preparation; test: Specificity towards smooth muscle relaxation: isolated portal vein versus paced papillary heart muscle in an organ bath; parameters: species or system Wistar rats; conditions: separation value: averaged difference of -log ED50 portal vein (vasodilatation) and -log ED50 papillary muscle (myocardial depression), transformed into numeric format
Protocol: The specificity towards smooth muscle relaxation was examined as follows: The isolated portal vein preparation of Wistar rats was mounted in an organ bath together with a paced isolated papillary heart muscle preparation of the same animal. The integrated contractile activity of the portal vein smooth muscle and the peak force amplitude of the papillary, myocardial, preparation were recorded. The respective activities during a 30 min control period were set as 100 per cent and the ensuing activities under the influence of an agent under study were expressed as a percentage thereof. The agent was administered at 10 min intervals and the potency for vasodilatation (-log ED50 of portal vein) and that of myocardial depression (-log ED50 of ^pa^pill- ary muscle) were determined by interpolation from the concentration-effect relationships determined in each experiment. A "separation" value was determined for each compound by averaging the differences of the -log ED50 values for vasodilatation and myocardial depression, respectively, ogtained in the experiments. This logarithmic separation value was transformed into numeric format and entered into table 2.

COC(=O)C1=C(C)NC(C)=C(C(=O)OCCSCCN(C)C)C1c1cccc([N+](=O)[O-])c1 (stereo not drawn) [Compound 1, 2,6-dimethyl-4-(3-nitrophenyl)-1,4-dihydropyridine-3,5--dicarboxylic acid-3-[2-(N,N-dimethylaminoethylthio)ethyl]--5-methyl ester]
ED20 [1]: 16 µmol/kg
Ratio heart vasc. [2]: 30

COC(=O)C1=C(C)NC(C)=C(C(=O)OCCSCCN(C)C)C1c1ccccc1[N+](=O)[O-] (stereo not drawn) [Compound 2, 2,6-dimethyl-4-(2-nitrophenyl)-1,4-dihydropyridine-3,5--dicarboxylic acid-3-[2-(2-N,N-dimethylaminoethylthio)ethyl]--5-methyl ester]
ED20 [1]: 30 µmol/kg
Ratio heart vasc. [2]: 5

COC(=O)C1=C(C)NC(C)=C(C(=O)OCCSCCN(C)C)C1c1cccc(C#N)c1 (stereo not drawn) [Compound 3, 2,6-dimethyl-4-(3-cyanophenyl)-1,4-dihydropyridine-3,5--dicarboxylic acid-3-[2-(2-N,N-dimethylaminoethylthio)ethyl)--5-methyl ester]
ED20 [1]: 50 µmol/kg
Ratio heart vasc. [2]: 18

COC(=O)C1=C(C)NC(C)=C(C(=O)OCCSCCN(C)C)C1c1cccc(Cl)c1Cl (stereo not drawn) [Compound 4, 2,6-dimethyl-4-(2,3-dichlorophenyl)-1,4-dihydropyridine-3,5-dicarboxylic acid-3-[2-(2-N,N-dimethyl-aminoethylthio)ethyl]-5-methyl ester]
ED20 [1]: 19 µmol/kg
Ratio heart vasc. [2]: 3

CC1=C(C(=O)OCCSCCN(C)C)C(c2cccc(Cl)c2Cl)C(C(=O)OC(C)C)=C(C)N1 (stereo not drawn) [Compound 5, 2,6-dimethyl-4-(2,3-dichlorophenyl)-1,4-dihydropyridine--3,5-dicarboxylic acid-3-[2-(2-N,N-dimethylaminoethylthio)-ethyl)-5-(2-methylethyl)ester]
ED20 [1]: 20 µmol/kg
Ratio heart vasc. [2]: 19

CCOC(=O)C1=C(C)NC(C)=C(C(=O)OCCSCCN(C)C)C1c1cccc(Cl)c1Cl (stereo not drawn) [Compound 6, 2,6-dimethyl-4-(2,3-dichlorophenyl]-1,4-dihydropyridine--3,5-dicarboxylic acid-3-[2-(2-N,N-dimethylaminoethylthio)-ethyl]-5-ethyl ester]
ED20 [1]: 25 µmol/kg
Ratio heart vasc. [2]: 16

COCCOC(=O)C1=C(C)NC(C)=C(C(=O)OCCSCCN(C)C)C1c1cccc(Cl)c1Cl (stereo not drawn) [Compound 7, 2,6-dimethyl-4-(2,3-dichlorophenyl)-1,4-dihydropyridine--3,5-dicarboxylic acid-3-[2-(2-N,N-dimethylaminoetylthio-ethyl]-5-12-methoxyethyl) ester]
ED20 [1]: 56 µmol/kg
Ratio heart vasc. [2]: 20

CCN(CC)CCSCCOC(=O)C1=C(C)NC(C)=C(C(=O)OC)C1c1cccc(Cl)c1Cl (stereo not drawn) [Compound 8]
ED20 [1]: 6 µmol/kg
Ratio heart vasc. [2]: 4

COC(=O)C1=C(C)NC(C)=C(C(=O)OCCSCCN2CCOCC2)C1c1cccc(Cl)c1Cl (stereo not drawn) [Compound 9, 2,6-dimethyl-4-(2,3-dichlorophenyl)-1,4-dihydropyridine--3,5-dicarboxylic acid-3-[2-(2-morpholinoethylthio)-ethyl]--5-methyl ester]
ED20 [1]: 5 µmol/kg
Ratio heart vasc. [2]: 27

COC(=O)C1=C(C)NC(C)=C(C(=O)OCCSCCN(Cc2ccccc2)C(C)C)C1c1cccc(Cl)c1Cl (stereo not drawn) [Compound 10]
ED20 [1]: 9 µmol/kg
Ratio heart vasc. [2]: 22

COC(=O)C1=C(C)NC(C)=C(C(=O)OCCSCCCN(C)C)C1c1cccc(Cl)c1Cl (stereo not drawn) [Compound 11, 2,6-dimethyl-4-(2,3-dichlorophenyl)-1,4-dihydropyridine--3,5-dicarboxylic acid-3-[2-(3-N,N-dimethylaminopropylthio)-ethyl]-5-methyl ester]
Ratio heart vasc. [2]: 3

COCCOC(=O)C1=C(C)NC(C)=C(C(=O)OCCSCCN(Cc2ccccc2)C(C)C)C1c1cccc(Cl)c1Cl (stereo not drawn) [Compound 12, 2,6-dimethyl-4-(2,3-dichlorophenyl)-1,4-dihydropyridine--3,5-dicarboxylic acid-3-[2-(2-N-isopropyl-N-benzylethyl-thio)ethyl]-5-(2-methoxyethyl) ester]
ED20 [1]: 26 µmol/kg
Ratio heart vasc. [2]: 50

COCCOC(=O)C1=C(C)NC(C)=C(C(=O)OCCSCCN2CCOCC2)C1c1cccc(Cl)c1Cl (stereo not drawn) [Compound 13, 2,6-dimethyl-4-(2,3-dichlorophenyl)-1,4-dihydropyridine-3,5-dicarboxylic acid-3-[2-(2-morpholinoethyl-thio)ethyl]-5-(2-methoxethyl) ester]
ED20 [1]: 15 µmol/kg
Ratio heart vasc. [2]: 70

COC(=O)C1=C(C)NC(C)=C(C(=O)OC)C1c1ccccc1[N+](=O)[O-] [Nifedipine, 2,6-dimethyl-4-(2-nitrophenyl)-1,4-dihydropyridine-3,5-dicarboxylic acid-3,5-dimethylester, reference compound]
ED20 [1]: 5 µmol/kg
Ratio heart vasc. [2]: 15

Source: patent publication EP0095451A2, “Novel dihydropyridines” (priority 1982, dated 1983)
